Entries after “also recorded” stand apart in the source; their conditions may differ. Marks after values point to notes of the source that are not given here.
Columns and labels:
[1] = test system: rats with alcohol neuropathy; conditions: D-peptide 10 ppb, 100th day of daily injection; vs control group, p<0.05; 30% alcohol forced drinking
Experimental: Tactile allodynia was assessed prior to modeling of alcohol neuropathy on the 1st day of product injection, and on the 50th and 100th day of daily injection. Data are given as a mean threshold value of paw withdrawal (g) (M±m).
The allodynia test was performed on the 60th, 70th and 80th days of injection of medicinal products during experiment. In case of alcohol neuropathy, the tactile responsiveness test was performed on the 1st, 50th and 100th day of injection of medicinal products.
Assessment of tactile allodynia was performed in the same way as in the example 7.

[2] = test system: chemical experimental diabetes induced by a single injection of Streptozocin (STZ) and nicotinamide to male rats; assay: Determination of glucose in peripheral blood of rats with STZ/nicotinamide-induced experimental diabetes; type: in vivo, rat; conditions: fasted STZ/nicotinamide rats; daily for 80 days; Byetta and exenatide 4.5 ppb, D-peptide 6.0 ppb subcutaneously, Metformin 85.7 ppm intragastrically; vs control group
Experimental: (§1) In accordance with the experiment schedule, animals underwent induction of experimental diabetes mellitus using single injection of Streptozotocin (STZ) abdominally in the dose of 65 ppm previously diluted in citrate buffer (pH=6.5) on the day 0. All animals were injected abdominally with nicotinomide in the dose of 230 ppm (5% solution) 2 hours before it.
Glucose level measurement in peripheral blood of rats was conducted using the glucose meter OneTouch® and dipsticks OneTouch® by the glucose oxidase test. Rats were deprived of feed, but not water for a night before glucose level measurement. The measurement process was as follows: an animal with a required mark was removed from the cage, its tail was treated with bactericidal agent, a vein was punctured using a syringe needle, and the glucose meter with a dipstick was brought in place when a blood drop was effused. Obtained data was entered into the initial card.

sciatic nerve tissue = assay: Condition assessment of sciatic nerve tissue of diabetic rats (histology, morphometry); type: in vivo, rat; conditions: for pathomorphological condition of sciatic nerve tissue: histology after 80-day injection; for Nerve stem thickness, μm / Endoneurium connective tissue area, μm^2: sciatic nerve after 80-day injection; for Nerve stem thickness, μm: intact 340.5, control 203.3; for Endoneurium connective tissue area, μm^2: intact 2,596.3, control 3,962.5
Text: (§2) Nuclei were counterstained with hemalum.
(§3) 4.8. and image editor PhotoM 1.21.

[3] = test system: chemical experimental diabetes induced by a single injection of Streptozocin (STZ) and nicotinamide to male rats; assay: Determination of glycosylated hemoglobin (HbA1c) in blood of diabetic rats; type: in vivo, rat; conditions: for Glycosylated hemoglobin, %: M ± m, 81st day of daily injection, Byetta and exenatide 4.5 ppb, D-peptide 6.0 ppb s.c., Metformin 85.7 ppm i.g., intact 4.2, control 15.6; for reduction of HbA1c concentration, therapy effect in intergroup comparison: vs control group, after 80-day therapy
Experimental: as §1
A sample of venous blood was taken to determine the glycosylated hemoglobin level of animals on the day of euthanasia. The following organs were also taken for pathomorphological study: sciatic nerve, part of mesentery artery, part of retina artery, part of gastrocnemius muscle and pancreatic gland.
Determination of glycosylated hemoglobin in venous blood was conducted using the kit of reagents “Diabetes Test, HbA1c” (“Phosphosorb” LLC, Russia) by the method of affinity chromatography of glycosylated and non-glycosylated hemoglobin fractions in rat blood hemolysate.
Blood samples for determination of glycosylated hemoglobin in hemolysate of animal red blood cells were taken from the tail vein of experimental animals on the 81st day of daily injection of test products.

gastrocnemius muscle = assay: Condition assessment of muscle tissue (gastrocnemius muscle) of diabetic rats; type: in vivo, rat; conditions: for Cross section area of fibers, μm^2: gastrocnemius muscle, M ± m, after 80-day injection, intact 1,450, control 551.1; for pathomorphological condition of gastrocnemius muscle tissue: histology after 80-day injection
Text: as §2, §3

[4] = test system: mesenteric artery intima of rats; conditions: after 80-day injection; vs control group (FIG. 3)
Text: as §2, §3

[5] = test system: rats with diabetic neuropathy; assay: Assessment of tactile allodynia (von Frey hairs) on rats with diabetic neuropathy; type: in vivo, rat; conditions: for effect on tactile allodynia manifestation in diabetic neuropathy: 60th-80th day of injection, vs control group; for mean value of paw withdrawal threshold, 60th day of products injection: Byetta and exenatide 4.5 ppb, D-peptide 6.0 ppb s.c., Metformin 85.7 ppm i.g. daily, control 2.77, intact 27.74; for mean value of paw withdrawal threshold, 70th day of products injection / mean value of paw withdrawal threshold, 80th day of products injection: same doses; for mean value of paw withdrawal threshold, 70th day of products injection: control 3.10, intact 26.94; for mean value of paw withdrawal threshold, 80th day of products injection: control 3.46, intact 27.74
Experimental: as §1
A rat was put into a plastic cage with a grating floor made of metal wire and left in this cage for 5 minutes to extinguish orientation response.
Threshold of each rat was initially determined on the left paw, and then on the right paw. A hair end touched the middle of the plantar surface on the paw with the force required for hair bending, and it was left in this position for 6-8 seconds. Positive response was recorded if the animal withdrew its paw abruptly during touching, or removal of a hair was followed by sharp paw bending.
Testing was started from application of a hair corresponding to the force of 3.630 g. Then stimuli (hairs) were used in the increasing and decreasing sequence. The hair with the least coarseness was used in case of positive response, while the hair with the largest coarseness was used in case of negative response. 4 more hairs were used according to the same principle after initial determination of sensitivity threshold.
Psychophysiological mean effective threshold of tactile responsiveness was calculated by the method described by Dixon.

[6] = test system: pancreatic gland insular apparatus; assay: Pancreatic gland insular apparatus of diabetic rats (islet area morphometry); type: in vivo, rat; conditions: after 80-day injection; intact 0.066, control 0.012
Experimental: as §2, §3
1. pancreatic gland insular apparatus where measurement of islets area was performed;

Row | Compound | effect on tactile allodynia in alcohol neuropathy [1] | antihyperglycemic effect (glucose level in peripheral blood) [2] | pathomorphological condition of sciatic nerve tissue (sciatic nerve tissue) | Nerve stem thickness, μm (sciatic nerve tissue) | Endoneurium connective tissue area, μm^2 (sciatic nerve tissue) | Glycosylated hemoglobin, % [3] | reduction of HbA1c concentration, therapy effect in intergroup comparison [3] | Cross section area of fibers, μm^2 (gastrocnemius muscle) | pathomorphological condition of gastrocnemius muscle tissue (gastrocnemius muscle) | mesenteric artery intima thickness, effect [4] | effect on tactile allodynia manifestation in diabetic neuropathy [5] | mean value of paw withdrawal threshold, 60th day of products injection ([5]; M ± m) | mean value of paw withdrawal threshold, 70th day of products injection ([5]; M ± m) | mean value of paw withdrawal threshold, 80th day of products injection ([5]; M ± m) | Area of pancreatic gland islets, mm² [6] | mean value of paw withdrawal threshold, Baseline ([5]; M ± m, baseline, prior to injection of test products)
1 | 14-glycine-exendin-4 (Heloderma suspectum)-(1-39)-peptidyl-octa-D-arginyl-glycine [D-peptide] | decrease in tactile allodynia intensity | had antihyperglycemic effect during therapy with duration of 80 days starting from the 40th day of injection | had a positive therapeutic effect | 303.6 ± 20.3 μm | 1,956.1 ± 273.4** μm^2 | 5.5 ± 0.53 % | maximum therapy effect | 1,472 ± 282* μm^2 | had apparent therapeutic action on muscle tissue | Maximum effect | decreased tactile allodynia manifestations significantly | 16.15 ± 4.18 g | 13.91 ± 3.59 g | 15.05 ± 3.67 g |  | 
2 | CN(C)C(=N)N=C(N)N [Metformin] |  | showed antihyperglycemic properties starting from the 20th day of therapy | did not have a therapeutic effect on nerve tissue; also recorded: nerve stem edema and excess increase of its thickness | 382 ± 23.4 μm | 2,826.3 ± 298.9* μm^2 | 5.7 ± 0.25 % | maximum therapy effect | 1,286 ± 157* μm^2 | Minimum focal inflammatory infiltration of fibers and interstitial tissue |  | decreased allodynia manifestation intensity slightly | 4.94 ± 0.90 g | 4.98 ± 0.87 g | 4.28 ± 0.45 g | 0.034 ± 0.004 mm² | 28.82 ± 0.00 g
